Assay results taken from patent US8044098B2, “Use of hydroxybenzoic acids and their esters and analogues for preventing or treating virus infection” (Shenghua Guangzhou Pharmaceutical Science & Technology Co., …, priority 2005, dated 2011).

Experiments:
[1] = system: HPV 16/18; experiment: Drug screening by quantitative fluorescent PCR analysis of HPV 16/18 in condyloma acuminata homogenate; set-up: species or system human papillomavirus (HPV); details: for HPV 16/18 Virus (copies/ml): 50 μl 10% micro emulsion + 50 μl HPV sample homogenate, 37° C., 24 hours, saline control 1.40 × 10^5; for HPV 16/18 detected by FQ-PCR (in words): 24 hours after adding the test compound
[2] = system: HPV 6/11; experiment: Drug screening by quantitative fluorescent PCR analysis of HPV 6/11 in condyloma acuminata homogenate; set-up: species or system human papillomavirus (HPV); details: for HPV 6/11 Virus (copies/ml): 50 μl 10% micro emulsion + 50 μl HPV sample homogenate, 37° C., 24 hours, saline control 1.45 × 10^6; for HPV 6/11 detected by FQ-PCR (in words): 24 hours after adding the test compound
[3] = system: condyloma acuminata; experiment: Clinical use in treating condyloma acuminata; type: in vivo, human; details: for treatment effect compared to recombinant human interferon α-2β gel: condyloma acuminata patients, 10% micro emulsion; for Recovered, 1-4 days: number of patients (50 patients in five groups), 10% micro emulsion on affected areas three times a day; for Improved: more than 30% of the skin lesions disappeared; for Obvious Effect, 1-4 days / Obvious Effect, 5-8 days: more than 70% of the skin lesions disappeared
Description: Soft hyperplasia with nipple or cauliflower shaped or other shaped warts were found around the skin of the cunnus or anus. The result from 5% acetate acid white test was positive.
Patients selected for the clinical observation must meet the above standards. Plus the diameter of their skin lesions should equal to or be less than 1 cm. […] Patients who had vaginal yeast, trichomonas, bacteria infection or other complications, chronic diseases, serious liver or kidney diseases or women in pregnancy or lactation were not selected. Treatments to women would not be conducted in their menstrual periods.
50 qualified patients were selected and randomly divided into five groups to be tested with p-hydroxybenzoic acid, gallic acid, ethyl p-hydroxybenzoate, propyl gallate and recombinant human interferon α-2β gel, respectively. The samples of p-hydroxybenzoic acid, gallic acid, ethyl p-hydroxybenzoate and propyl gallate were prepared as described in Example 1. The patients were treated with the test sample to the affected areas three times a day, in the morning, at noon and night. The samples were applied to cover the warts and the patients were required to leave the treated areas exposed and not to move for 20 minutes.
Observation time: 8 days. Patients not cured after 8 days would continue to use the test samples for another 12 weeks, and their prognosis was followed during the 12-week period.
Observed items: the location, shape, size and number of warts were carefully observed and recorded before the treatment.
“Recovered”: all skin lesions had disappeared;
“Obvious Effect”: more than 70% of the skin lesions had disappeared;
“Improved”: more than 30% of the skin lesions had disappeared;
“Not Effective”: less than 30% of the skin lesions had disappeared or the original skin lesions didn't change or even enlarged.

[4] = type: physicochemical
Method: 20 ml 1,2-propylene glycol, 15 ml Tween-80 and 5 ml azone were mixed together and sterile distilled water was added to bring the volume to 100 ml. The pH value of the solution was adjusted to pH 6.8 with NaOH or HCl to obtain a micro emulsion. 10 g propyl gallate and 10 g gallic acid were dissolved in the micro emulsion, respectively, and mixed well. 10 ml of each micro emulsion was added to a capped transparent glass tube. Both solutions were colorless. The absorbance of the two solutions at 400˜500 nm was measured with spectrophotometry and their absorbance was under 0.15. […] Measured by spectrophotometry again, the absorbance of the gallic acid solution was 1.2 and that of the propyl gallate solution was 0.4.

[5] = system: HSV infection; experiment: External treatment of HSV infection in clinical tests; type: in vivo, human; details: patients with HSV infection, applied on affected areas three times a day
Description: Twenty-two patients who were clinically diagnosed with HSV infection were randomly selected and divided into two groups. Acyclovir ointment and micro emulsion containing propyl gallate prepared as described in Example 1 were applied to the two groups, respectively, on the affected areas of the patients three times a day.

[6] = system: secretion of HBeAg by 2.2.15 cells; experiment: Inhibition of secretion of HBeAg by Hepatitis B 2.2.15 cell line; type: cell-based, HBV; details: 1 μmol/ml; for HBeAg Inhibition Rate: 2.2.15 cells, supernatant collected three days later
Description: (§1) Hepatitis B 2.2.15 cell line was transfected by HBV DNA (purchased from Institute of Biochemistry and Cell Biology of Shanghai Institute for Biological Sciences or the National Center for Drug Screening) and used as the cell model for screening anti-HBV drug compounds (See Chinese Journal Of Integrated Traditional and Western Medicine on Liver Diseases, 2004, 14(3): 158). The cell culture medium DMEM (GIBCO Company), bovine serum (Hangzhou Siji Qing Biochemical Manufacturer), G418 (GIBCO Company), 3-(4,5-dimethylthiazol-2-yl)-2,5-diphenyltetrazoliumbromide (Sigma), HBsAg and HBeAg diagnostic kit (Shanghai Kehua Bio-engineering Co., Ltd).
(§2) The test compounds listed in Table 3 below were dissolved in a mixture containing 20 ml 1,2-propylene glycol and 15 ml Tween-80 and diluted with sterile saline water to 2 μmol/ml of the test compound. Then it was mixed with the cell culture medium at equal volume to obtain a solution containing 1 μmol/ml of the tested compound. Cells at the concentration of 1×10^5 cells per milliliter were inoculated to a 24-well plate at 1 ml/well. Supernatant from the cell culture mixture was collected three days later for testing.

[7] = system: secretion of HBsAg by 2.2.15 cells; experiment: Inhibition of secretion of HBsAg by Hepatitis B 2.2.15 cell line; type: cell-based, HBV; details: 1 μmol/ml; for HBsAg Inhibition rate: 2.2.15 cells, supernatant collected three days later
Description: as §1, §2

[8] = number of patients, observation 8 days

| SMILES | HPV 16/18 Virus (copies/ml) [1] | HPV 6/11 Virus (copies/ml) [2] | HPV 16/18 detected by FQ-PCR (in words) [1] | HPV 6/11 detected by FQ-PCR (in words) [2] | other results |
| --- | --- | --- | --- | --- | --- |
| COC(=O)c1cccc(O)c1O [Methyl 2,3-dihydroxybenzoate] | 4.20 × 10^2 copies/ml | 3.00 × 10^4 copies/ml |  |  |  |
| CCCCCCCCCCCCOC(=O)c1cc(O)c(O)c(O)c1 [dodecyl gallate, Dodecyl gallate] | 4.90 × 10^4 copies/ml | 6.70 × 10^4 copies/ml |  |  |  |
| CCCCCCCCOC(=O)c1cc(O)c(O)c(O)c1 [Octyl gallate] | 0 copies/ml | 0 copies/ml | no HPV 6/11 or HPV 16/18 was detected | no HPV 6/11 or HPV 16/18 was detected |  |
| COC(=O)c1ccc(O)c(O)c1 [Methyl 3,4-dihydroxybenzoate] | 6.00 × 10^2 copies/ml | 8.50 × 10^4 copies/ml |  |  |  |
| O=C(O)c1cc(O)c(O)c(O)c1 [Gallic acid] | 0 copies/ml | 0 copies/ml | no HPV 6/11 or HPV 16/18 was detected | no HPV 6/11 or HPV 16/18 was detected | treatment effect compared to recombinant human interferon α-2β gel [3]: more apparent treatment effect; Recovered, 1-4 days ([3]; all skin lesions disappeared): 2; Improved [3, 8]: 4; Obvious Effect, 1-4 days ([3]; number of patients): 3; Obvious Effect, 5-8 days ([3]; number of patients): 1; colour of solution, initial ([4]; micro emulsion pH 6.8, freshly prepared): colorless; absorbance after 30 days ([4]; micro emulsion pH 6.8, kept at room temperature for 30 days, 400˜500 nm): 1.2; colour of solution after 30 days ([4]; micro emulsion pH 6.8, room temperature for 30 days): light brown; average time for recovery [5]: 3 days; effect on the secretion of HBeAg by the 2.2.15 cells (in words) [6]: had inhibition effect; HBeAg Inhibition Rate [6]: 9.40%; effect on the secretion of HBsAg by the 2.2.15 cells (in words) [7]: had inhibition effect; HBsAg Inhibition rate [7]: 8.83% |
| O=C(O)c1cc(Cl)c(O)c(Cl)c1 [3,5-dicloro-4-hydroxybenzoic acid] | 2.60 × 10^4 copies/ml | 2.30 × 10^3 copies/ml |  |  |  |
| CCOC(=O)c1ccc(O)cc1 [Ethyl p-hydroxybenzoate] | 0 copies/ml | 8.50 × 10^4 copies/ml | not detected |  | treatment effect compared to recombinant human interferon α-2β gel [3]: more apparent treatment effect; Recovered, 1-4 days ([3]; all skin lesions disappeared): 6; Recovered, 5-8 days ([3]; number of patients, 10% micro emulsion three times a day, all skin lesions disappeared): 2; Obvious Effect, 1-4 days ([3]; number of patients): 2 |
| O=C(O)c1ccc(O)c(O)c1 [3,4-dihydroxybenzoic acid] | 8.50 × 10^4 copies/ml | 1.90 × 10^4 copies/ml |  |  | effect on the secretion of HBeAg by the 2.2.15 cells (in words) [6]: had inhibition effect; HBeAg Inhibition Rate [6]: 8.92%; effect on the secretion of HBsAg by the 2.2.15 cells (in words) [7]: had inhibition effect; HBsAg Inhibition rate [7]: 9.81% |
| CCOC(=O)c1cc(O)c(O)c(O)c1 [Ethyl gallate] | 0 copies/ml | 0 copies/ml | no HPV 6/11 or HPV 16/18 was detected | no HPV 6/11 or HPV 16/18 was detected |  |
| O=C(O)c1ccc(O)cc1 [p-hydroxybenzoic acid] | 1.30 × 10^3 copies/ml | 7.00 × 10^5 copies/ml |  |  | treatment effect compared to recombinant human interferon α-2β gel [3]: more apparent treatment effect; Not Effective ([3]; number of patients, less than 30% of the skin lesions disappeared, observation 8 days): 3; Improved [3, 8]: 2; Obvious Effect, 5-8 days ([3]; number of patients): 5 |
| O=C(O)c1ccccc1 [Benzoic acid, benzoic acid] | 2.90 × 10^4 copies/ml | 3.60 × 10^5 copies/ml |  |  |  |
| CCCOC(=O)c1ccc(O)c(O)c1O [Propyl 2,3,4-trihydroxybenzoate] | 0 copies/ml | 0 copies/ml | no HPV 6/11 or HPV 16/18 was detected | no HPV 6/11 or HPV 16/18 was detected |  |
| O=C(O)c1cccc(O)c1O [2,3-dihydroxybenzoic acid] | 3.20 × 10^3 copies/ml | 2.30 × 10^4 copies/ml |  |  |  |
| O=C(O)c1ccc(O)c(Br)c1 [3-bromo-4-hydroxybenzoic acid] | 5.00 × 10^4 copies/ml | 3.40 × 10^3 copies/ml |  |  |  |
| O=C(O)c1ccc(O)cc1O [2,4-dihydroxybenzoic acid] | 4.60 × 10^3 copies/ml | 1.60 × 10^4 copies/ml |  |  |  |
| CCCCCCCCOC(=O)c1cccc(O)c1O [Octyl 2,3-dihydroxybenzoate] | 1.50 × 10^2 copies/ml | 2.20 × 10^2 copies/ml |  |  |  |
| O=C(O)c1ccc(O)c(O)c1O [2,3,4-trihydroxybenzoic acid] | 0 copies/ml | 0 copies/ml | no HPV 6/11 or HPV 16/18 was detected | no HPV 6/11 or HPV 16/18 was detected |  |
| COC(=O)c1cc(O)c(O)c(O)c1 [Methyl gallate] | 0 copies/ml | 0 copies/ml | no HPV 6/11 or HPV 16/18 was detected | no HPV 6/11 or HPV 16/18 was detected |  |
| CCOC(=O)c1ccc(O)c(O)c1 [Ethyl 3,4-dihydroxybenzoate] |  |  |  |  | effect on the secretion of HBeAg by the 2.2.15 cells (in words) [6]: had inhibition effect; inhibition of HBeAg secretion compared with gallic acid and 3,4-dihydroxybenzoic acid [6]: more effective; HBeAg Inhibition Rate [6]: 6.04%; effect on the secretion of HBsAg by the 2.2.15 cells (in words) [7]: had inhibition effect; inhibition of HBsAg secretion compared with gallic acid and 3,4-dihydroxybenzoic acid [7]: more effective; HBsAg Inhibition rate [7]: 14.20% |
| O=C(O)c1ccccc1O [Salicylic acid, salicylic acid, reference compound] | 2.60 × 10^4 copies/ml | 5.50 × 10^5 copies/ml |  |  |  |
| COC(=O)c1ccc(O)c(O)c1O [Methyl 2,3,4-trihydroxybenzoate] | 0 copies/ml | 0 copies/ml | no HPV 6/11 or HPV 16/18 was detected | no HPV 6/11 or HPV 16/18 was detected |  |
| COC(=O)c1ccc(O)cc1O [Methyl 2,4-dihydroxybenzoate] | 2.50 × 10^2 copies/ml | 5.20 × 10^4 copies/ml |  |  |  |
